Data as given in US5686486A, “4-hydroxy-benzopyran-2-ones and 4-hydroxy-cycloalkyl[b]pyran-2-ones useful to treat retroviral infections” (priority 1995, dated 1997).
Where “and” joins values, the source holds several entries; their conditions need not be identical. Equal entries are not always repeated. Where two headings read alike, the source gives them in different places. One block for each compound: values may come before it.

Biological target: HIV-1 protease (Human immunodeficiency virus type 1 group M subtype B, UniProt P04585)
Experiment: biochemical
Settings: for inhibition at 1 µM: read-out: HIV-1 Protease % Inhib, dose 1.000 uM; for inhibition at 100 µM: read-out: HIV-1 Protease % Inhib, dose 100.000 uM; for inhibition at 0.123 µM: read-out: HIV-1 Protease % Inhib, dose 0.123 uM; for inhibition at 0.37 µM: read-out: HIV-1 Protease % Inhib, dose 0.370 uM
Procedure, shortened: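 Biotinylated, FITC-labeled peptide substrate (20 μl of 0.2 μM) incubated with HIV-1 protease (10 μl of 0.1 μM) and compound in 0.1 M sodium acetate pH 5.5, 1.0 M NaCl, 0.05% NP-40, 1 h, room temperature, dark. Streptavidin beads then capture uncleaved substrate; filtered labeled product read by fluorescence, giving percent inhibition.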

[1] = read-out: HIV-1 Protease % Inhib, dose 10.000 uM
[2] = read-out: HIV-1 Protease % Inhib, dose 1.100 uM
[3] = read-out: HIV-1 Protease % Inhib, dose 3.300 uM
[4] = read-out: HIV-1 Protease % Inhib, dose 30.000 uM
[5] = dose 3.300 uM, read-out: HIV-1 Protease % Inhib
[6] = dose 10.000 uM, read-out: HIV-1 Protease % Inhib
[7] = dose 30.000 uM, read-out: HIV-1 Protease % Inhib

SMILES: C=CCOc1ccccc1C(CC)c1c(O)c2ccccc2oc1=O (stereo not shown) [Example 69, 3-(1'-(2-Allyloxyphenyl)propyl)-4-hydroxycoumarin]
- inhibition at 1 µM: < 10%
- inhibition at 10 µM [1]: 20.6%
- inhibition at 100 µM: 92.2%

SMILES: CCC(c1ccccc1)c1c(O)c2ccc3ccccc3c2oc1=O (stereo not shown) [Example 99, 2H-Naphtho[1,2-b]pyran-2-one, 4-hydroxy-3-(1-phenylpropyl)-]
- inhibition at 1 µM: < 10%
- inhibition at 10 µM [1]: < 10%
- inhibition at 100 µM: 43.3%

SMILES: CCC(c1ccccc1)c1c(O)c2ccc(C)cc2oc1=O (stereo not shown) [Example 90, Coumarin, 4-hydroxy-7-methyl-3-(1-phenylpropyl)-]
- inhibition at 1 µM: < 10%
- inhibition at 10 µM [1]: 29.7%
- inhibition at 100 µM: 89.2%

SMILES: CCC(c1ccccc1)c1c(O)c2cc(OC)ccc2oc1=O (stereo not shown) [Example 89, Coumarin, 4-hydroxy-6-methoxy-3-(1-phenylpropyl)-]
- inhibition at 1 µM: < 10%
- inhibition at 10 µM [1]: 10.3%
- inhibition at 100 µM: 52%

SMILES: O=c1oc2c(c(O)c1C(c1cccc(NS(=O)(=O)c3cccc(Br)c3)c1)C1CC1)CCCCCC2 (stereo not shown) [Example 291, 3-Bromo-N-[3-[cyclopropyl(5,6,7,8,9,10-hexahydro-4-hydroxy-2-oxo-2H-cycloocta[b]pyran-3-yl)methyl]phenyl]-benzenesulfonamide]
- inhibition at 0.123 µM: 80.4%
- inhibition at 0.37 µM: 108%
- inhibition at 1.1 µM [2]: 109%
- inhibition at 3.3 µM [3]: 122%
- inhibition at 10 µM [1]: 118%
- inhibition at 30 µM [4]: 117%

SMILES: CCC(CCc1ccccc1)c1c(O)c2ccccc2oc1=O (stereo not shown) [Example 155, 3-(1-Ethyl-3-phenyl-propyl)4-hydroxy-chromen-2-one]
- inhibition at 1 µM: 15.4%
- inhibition at 10 µM [1]: 74.9%
- inhibition at 100 µM: 91.9%

SMILES: O=c1oc2ccccc2c(O)c1C(c1ccccc1)C1CC1 (stereo not shown) [Example 15, 3-(Cyclopropylphenylmethyl)-4-hydroxycoumarin]
- IC50 (HIV-1 Protease IC50): 1250 nM
- inhibition at 1 µM: 43.8%
- inhibition at 10 µM [1]: 89.6%

SMILES: CCC(c1cccc(NC(=O)C(C)NC(=O)OC(C)(C)C)c1)c1c(O)c2ccccc2oc1=O (stereo not shown) [Example 60, Carbamic acid, [2-[[3-[1-(4-hydroxy-2-oxo-2H-1-benzopyran-3-yl)propyl]phenyl]amino]-1-methyl-2-oxoethyl]-, 1,1-dimethylethyl ester]
- IC50 (HIV-1 Protease IC50): 1100 nM
- inhibition at 1 µM: 31.5%
- inhibition at 10 µM [1]: 90.8%
- inhibition at 100 µM: 117%

SMILES: COc1ccc2c(c1)CCCC2c1c(O)c2ccccc2oc1=O (stereo not shown) [Example 76, 4-Hydroxy-3-(1-(6-methoxy)-1,2,3,4-tetrahydronaphthyl)-coumarin]
- inhibition at 1 µM: < 10%
- inhibition at 10 µM [1]: 47.8%
- inhibition at 100 µM: 96.5%

SMILES: CCC(c1ccccc1)c1c(O)c2ccc(Cl)cc2oc1=O (stereo not shown) [Example 92, Coumarin, 7-chloro-4-hydroxy-3-(1-phenylpropyl)-]
- inhibition at 1 µM: < 10%
- inhibition at 10 µM [1]: 67.8%
- inhibition at 100 µM: 113%

SMILES: O=c1oc2c(c(O)c1C(c1cccc(NS(=O)(=O)c3ccccc3Cl)c1)C1CC1)CCCCCC2 (stereo not shown) [Example 293, 2-Chloro-N-[3-[cyclopropyl(5,6,7,8,9,10-hexahydro-4-hydroxy-2-oxo-2H-cycloocta[b]pyran-3-yl)methyl]phenyl]-benzenesulfonamide]
- inhibition at 0.123 µM: 54.9%
- inhibition at 0.37 µM: 82.4%
- inhibition at 1.1 µM [2]: 96.8%
- inhibition at 3.3 µM [3]: 107%
- inhibition at 10 µM [1]: 105%
- inhibition at 30 µM [4]: 109%

- inhibition at 1.1 µM (dose 1.100 uM, read-out: HIV-1 Protease % Inhib): 22.9%
- inhibition at 3.3 µM [5]: 57.6%
- inhibition at 10 µM [6]: 76.8%
- inhibition at 30 µM [7]: 84.4%
SMILES: O=C(C=Cc1ccccc1)Nc1cccc(C(c2c(O)c3c(oc2=O)CCCCCC3)C2CC2)c1 (stereo not shown) [Example 208]

SMILES: CCC(c1ccccc1)c1c(O)c2cc(O)ccc2oc1=O (stereo not shown) [Example 95, Coumarin, 4,6-dihydroxy-3-(1-phenylpropyl)-]
- inhibition at 1 µM: < 10%
- inhibition at 10 µM [1]: 34.7%
- inhibition at 100 µM: 79.6%

SMILES: CCS(=O)(=O)Nc1cccc(C(c2c(O)c3c(oc2=O)CCCCC3)C2CC2)c1 (stereo not shown) [Example 365, N-[3-[Cyclopropyl(2,5,6,7,8,9-hexahydro-4-hydroxy-2-oxocyclohepta[b]pyran-3-yl)methyl]phenyl]-ethanesulfonamide]
- inhibition at 0.123 µM: 11.7%
- inhibition at 0.37 µM: 31.1%
- inhibition at 1.1 µM [2]: 65.3%
- inhibition at 3.3 µM [3]: 84.1%
- inhibition at 10 µM [1]: 94.5%
- inhibition at 30 µM [4]: 95.8%

SMILES: O=c1oc2ccccc2c(O)c1C(CCO)c1ccccc1 (stereo not shown) [Example 160, 4-Hydroxy-3-(3-hydroxy-1-phenyl-propyl)-chromen-2-one]
- inhibition at 0.41 µM (read-out: HIV-1 Protease % Inhib, dose 0.410 uM): < 10%
- inhibition at 1.23 µM (read-out: HIV-1 Protease % Inhib, dose 1.230 uM): < 10%
- inhibition at 3.7 µM (read-out: HIV-1 Protease % Inhib, dose 3.700 uM): < 10%
- inhibition at 11 µM (read-out: HIV-1 Protease % Inhib, dose 11.000 uM): 14.2%
- inhibition at 33 µM (read-out: HIV-1 Protease % Inhib, dose 33.000 uM): 40.4%
- inhibition at 100 µM: 82.6%

SMILES: C[C@@H](NC(=O)OC(C)(C)C)C(=O)Nc1cccc(C(c2c(O)c3c(oc2=O)CCCCCC3)C2CC2)c1 (stereo partly drawn) [Example 203, Carbamic acid, [2-[[3-[cyclopropyl(5,6,7,8,9,10-hexahydro-4-hydroxy-2-oxo-2H-cycloocta[b]pyran-3-yl)methyl]phenyl]amino]-1-(R)-methyl-2-oxyethyl]-, 1,1-dimethylethyl ester]
- inhibition at 0.123 µM: 15.6%
- inhibition at 0.37 µM: 55.8%
- inhibition at 1.1 µM [2]: 81.3%
- inhibition at 3.3 µM [3]: 94.3%
- inhibition at 10 µM [1]: 104%
- inhibition at 30 µM [4]: 94.3%

SMILES: C=CCOc1ccc2c(O)c(C(CC)c3ccccc3)c(=O)oc2c1 (stereo not drawn) [Example 78, Coumarin, 7-(allyloxy)-3-(α-ethylbenzyl)-4-hydroxy-]
- IC50 (HIV-1 Protease IC50): 8400 nM
- inhibition at 1 µM: < 10%
- inhibition at 10 µM [1]: 65.7%
- inhibition at 100 µM: 83.5%

SMILES: CC(C)C(c1cccc(NS(=O)(=O)c2ccc(C#N)cc2)c1)c1c(O)c2c(oc1=O)CCCCCC2 (stereo not shown) [Example 372, 4-Cyano-N-[3-[1-(6,7,8,9,10-hexahydro-4-hydroxy-2-oxo-2H-cycloocta[b]pyran-3-yl)-2-methylpropyl]phenyl]-benzenesulfonamide]
- inhibition at 0.123 µM: 65.3%
- inhibition at 0.37 µM: 91.3%
- inhibition at 1.1 µM [2]: 105%
- inhibition at 3.3 µM [3]: 108%
- inhibition at 10 µM [1]: 109%
- inhibition at 30 µM [4]: 106%

SMILES: CCC(c1cccc(NC(=O)CCNC(=O)OC(C)(C)C)c1)c1c(O)c2ccc(OC)cc2oc1=O (stereo not shown) [Example 58, Coumarin, 4-hydroxy-3-[1-[3-[[3-[(1,1-dimethylethoxycarbonyl)amino]-1-oxopropyl]amino]phenyl]propyl]-7-methoxy-]
- IC50 (HIV-1 Protease IC50): 1200 nM
- inhibition at 1 µM: 36.3%
- inhibition at 10 µM [1]: 90.2%
- inhibition at 100 µM: 108%

- inhibition at 10 µM [6]: 18.8%
- inhibition at 30 µM [7]: 31.8%
SMILES: O=c1oc2c(c(O)c1C(c1cccc(N(Cc3ccccc3)S(=O)(=O)c3ccccc3)c1)C1CC1)CCCCCC2 (stereo not shown) [Example 244, N-[3-[Cyclopropyl(5,6,7,8,9, 10-hexahydro-4-hydroxy-2-oxo-2H-cycloocta[b]pyran-3-yl)methyl]phenyl]-N-(phenylmethyl)-benzenesulfonamide]

SMILES: CCCC(c1cccc(NS(=O)(=O)c2ccc(F)cc2)c1)c1c(O)c2c(oc1=O)CCCCCC2 (stereo not shown) [Example 430, Benzenesulfonamide, N-[3-[1-(5,6,7,8,9,10-hexahydro-4-hydroxy-2-oxo-2H-cycloocta[b]pyran-3-yl)butyl]phenyl]-4-fluoro-]
- inhibition at 0.123 µM: 72.3%
- inhibition at 0.37 µM: 98.2%
- inhibition at 1.1 µM [2]: 96.6%
- inhibition at 3.3 µM [3]: 104%
- inhibition at 10 µM [1]: 105%
- inhibition at 30 µM [4]: 97.3%

SMILES: CC(C)c1ccc(S(=O)(=O)Nc2cccc(C(c3c(O)c4c(oc3=O)CCCCCC4)C3CC3)c2)cc1 (stereo not shown) [Example 345, N-[3-[Cyclopropyl(5,6,7,8,9,10-hexahydro-4-hydroxy-2-oxo-2H-cycloocta[b]pyran-3-yl)methyl]phenyl]-4-(1-methylethyl)-benzenesulfonamide]
- inhibition at 0.123 µM: 50%
- inhibition at 0.37 µM: 77%
- inhibition at 1.1 µM [2]: 90.4%
- inhibition at 3.3 µM [3]: 101%
- inhibition at 10 µM [1]: 105%
- inhibition at 30 µM [4]: 91.8%

- inhibition at 3.3 µM [5]: 28.3%
- inhibition at 10 µM [6]: 59.1%
- inhibition at 30 µM [7]: 84.2%
SMILES: N#Cc1ccc(S(=O)(=O)NCc2ccc(C(c3c(O)c4c(oc3=O)CCCCCC4)C3CC3)o2)cc1 (stereo not shown) [Example 391]

- IC50 (read-out: HIV-1 Protease IC50): 4880 nM and 3880 nM
SMILES: CCC(c1ccccc1)c1c(O)c2ccccc2oc1=O (stereo not shown) [Example 105, 4-hydroxy-3-(1-phenylpropyl)-coumarin]

- inhibition at 3.3 µM [5]: 37.5%
- inhibition at 10 µM [6]: 66.3%
- inhibition at 30 µM [7]: 89.8%
SMILES: O=c1oc2c(c(O)c1C(c1ccc(CNS(=O)(=O)c3ccc(F)cc3)s1)C1CC1)CCCCCC2 (stereo not shown) [Example 393]

SMILES: CCC(CCCc1ccccc1)c1c(O)c2ccccc2oc1=O (stereo not shown) [Example 156, 3-(1-Ethyl4-phenyl-butyl)-4-hydroxy-chromen-2-one]
- inhibition at 1 µM: 17.1%
- inhibition at 10 µM [1]: 33.6%
- inhibition at 100 µM: 63.7%

SMILES: CC(c1cccc(C(=O)NCC(=O)NCc2nc3ccccc3[nH]2)c1)c1c(O)c2ccccc2oc1=O (stereo not shown) [Example 33, Coumarin, 3-[1-[3-[[[[[[(2-benzimidazolyl)methyl]amino]carbonyl]methyl]amino]carbonyl]phenyl]ethyl]4-hydroxy-]
- inhibition at 1 µM: < 10%
- inhibition at 10 µM [1]: 11.2%
- inhibition at 100 µM: 77.4%
